Measurements taken from patent US12084473B2, “β-D-2′-deoxy-2′-α-fluoro-2′-β-C-substituted-2-modified-N6-substituted purine nucleotides for HCV treatment” (Atea Pharmaceuticals, Inc., priority 2015, dated 2024).

Experiments:
[1] = Cytotoxicity by XTT staining in replicon cells; conditions: human
Summary of the method: (§1)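 Cells cultured 24 h, then exposed 72 h to six half-log dilutions (top 100.0 or 1.0 μM) in triplicate, with interferon-alpha2b reference and medium-only controls. Viability read by XTT staining on a parallel plate; TC50 derived from concentration-response.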

Huh-7 luc/neo ET cells = assay: Cytotoxicity by XTT staining in replicon cells; conditions: read-out: HCV Replicon CC50; XTT, 72 hours
Summary of the method: as §1

[2] = system: HCV Genotype 1a, NS5B Mutation L159F and S282T; assay: microbe, parasite or virus in culture; type: cell-based
Experimental: (§2) Various patient-derived HCV genotypes containing wild-type and resistance-associated variants were used to determine their relative replication sensitivity to test compounds. Replicon resistance test vectors (RTVs) containing the NS5B genomic regions were prepared using viral RNA isolated from plasma of HCV patients. Each NS5B region was amplified by reverse-transcription polymerase chain reaction and cloned into an HCV replicon RTV which was then transferred by electroporation into Huh-7 cells.

[3] = system: HCV Genotype 1a, NS5B Mutation L159F; assay: microbe, parasite or virus in culture; type: cell-based
Experimental: as §2

[4] = system: HCV Genotype 1a, NS5B Mutation none; assay: microbe, parasite or virus in culture; type: cell-based
Experimental: as §2

[5] = system: HCV Genotype 1b, NS5B Mutation C316N; assay: microbe, parasite or virus in culture; type: cell-based
Experimental: as §2

[6] = system: HCV Genotype 1b, NS5B Mutation none; assay: microbe, parasite or virus in culture; type: cell-based
Experimental: as §2

[7] = system: HCV Genotype 2a, NS5B Mutation none; assay: microbe, parasite or virus in culture; type: cell-based
Experimental: as §2

[8] = system: HCV Genotype 2b, NS5B Mutation none; assay: microbe, parasite or virus in culture; type: cell-based
Experimental: as §2

[9] = system: HCV Genotype 3a-1, NS5B Mutation none; assay: microbe, parasite or virus in culture; type: cell-based
Experimental: as §2

[10] = system: HCV Genotype 3a-2, NS5B Mutation none; assay: microbe, parasite or virus in culture; type: cell-based
Experimental: as §2

[11] = system: HCV Genotype 4a, NS5B Mutation none; assay: microbe, parasite or virus in culture; type: cell-based
Experimental: as §2

[12] = system: HCV Genotype 4d, NS5B Mutation none; assay: microbe, parasite or virus in culture; type: cell-based
Experimental: as §2

HCV S282T replicon = assay: microbe, parasite or virus in culture; type: cell-based
Experimental: (§3) A transient transfection assay was performed to determine the sensitivity of the […] of HCV to test compounds. Huh-7 cells were electroporated in the presence of RNA transcribed from wild type or S282T HCV replicon plasmids from the T7 promoter. The transfected cells were seeded in to 96-well plates at 7.5×10^3 cells per well in Dulbecco's Modified Eagle's medium. After 24 hr of incubation, medium was removed and replaced with fresh medium containing no or various concentrations of test compounds. Following an additional 96-hr incubation, the anti-HCV activity was measured by luciferase endpoint with Britelite™ Plus luminescence reporter gene kit (Perkin Elmer, Shelton, CT). Duplicate plates were treated and incubated in parallel for assessment of cellular toxicity by staining with the tetrazolium dye XTT.

HCV wild type replicon = assay: microbe, parasite or virus in culture; type: cell-based
Experimental: as §3

human hepatocytes = assay: Metabolic studies in primary hepatocytes; type: in vitro ADME; conditions: 10 μM, 2-24 hr
Experimental: The metabolism of compounds 25, 27 and 5-2, at a concentration of 10 μM, were investigated in fresh primary cultures of human, dog and mouse hepatocytes. Plated hepatocytes from humans (XenoTech, mixed gender, pooled from 10 donors), male Beagle dog (BioreclamationIVT), and male ICR/CD-1 mice (BioreclamationIVT, 8 donors) in 6-well plates with matrigel overlay were incubated in singlet with 10 μM TA. After 2, 4, 6, 8 or 24 hr, intracellular levels of nucleotide prodrugs and their potential metabolites (prodrugs, monophosphates, triphosphates and nucleosides) were quantitated by LC-MS/MS. Concentrations below the lower limit of quantitation (1.5 pmol/10^6 cells for prodrugs, monophosphates and nucleosides and 12 pmol/10^6 cells for triphosphates) were extrapolated from the standard curves.

[13] = system: HCV genotype 1b luciferase reporter replicon; assay: microbe, parasite or virus in culture; type: cell-based; conditions: Hepatitis C virus, HuH-7-Luc/Neo-ET, 72 h, read-out: HCV Replicon EC50/EC95: EC50
[14] = Hepatitis C virus, read-out: IC50 Value
[15] = genotype 1a, NS5B L159F and S282T
[16] = genotype 3a-1, no NS5B mutation
[17] = genotype 3a-2, no NS5B mutation
[18] = Hepatitis C virus, 96 h, read-out: IC50 Value

In the case of `CC(C)OC(=O)[C@H](C)N[P@](=O)(OCC1O[C@@H](n2cnc3c(N(C)C4CC4)nc(N)nc32)[C@](C)(F)[C@@H]1O)Oc1ccccc1` (stereo partly drawn) [Compound 27, isopropyl ((((S)-(2R,3R,4R,5R)-5-(2-amino-6-(methylcyclopropanamino)-9H-purin-9-yl)-4-fluoro-3-hydroxy-4-methyltetrahydrofuran-2-yl)methoxy)-phenoxy-phosphoryl)-L-alaninate], the CC50 at 72 h [1] is reported as > 100000 nM, the CC50 (Huh-7 luc/neo ET cells) is reported as > 100000 nM and the “cross-resistance to L159F and S282T mutant” value [2] is reported as “neither 25, 27 nor 5-2 compound showed any evidence of cross-resistance”. For the same compound, the IC50 [2, 14] was 14.9 nM, the “Fold Change in IC50 from Sofosbuvir” value [2, 15] was 108.4 and the “Fold Change in IC95 from Sofosbuvir” value [2, 15] was 119.7. The “IC95 Value” [2, 15] was 141.6 nM, the “cross-resistance to L159F mutant” value [3] was “neither 25, 27 nor 5-2 compound showed any evidence of cross-resistance” and the IC50 [3, 14] was 5.1 nM. For the same compound, the “Fold Change in IC50 from Sofosbuvir” value ([3]; genotype 1a, NS5B L159F) was 22.3, the “Fold Change in IC95 from Sofosbuvir” value ([3]; genotype 1a, NS5B L159F) was 29.5 and the “IC95 Value” ([3]; genotype 1a, NS5B L159F) was 36.2 nM. For the same compound, the IC50 [4, 14] was 4.2 nM, the “Fold Change in IC50 from Sofosbuvir” value ([4]; genotype 1a, no NS5B mutation) was 15.0 and the “Fold Change in IC95 from Sofosbuvir” value ([4]; genotype 1a, no NS5B mutation) was 19.3. For the same compound, the “IC95 Value” ([4]; genotype 1a, no NS5B mutation) was 26.4 nM, the “cross-resistance to C316N mutant” value [5] was “neither 25, 27 nor 5-2 compound showed any evidence of cross-resistance” and the IC50 [5, 14] was 3.1 nM. The “Fold Change in IC50 from Sofosbuvir” value ([5]; genotype 1b, NS5B C316N) was 23.5, the “Fold Change in IC95 from Sofosbuvir” value ([5]; genotype 1b, NS5B C316N) was 28.7 and the “IC95 Value” ([5]; genotype 1b, NS5B C316N) was 16.5 nM. The IC50 [6, 14] was 5 nM, the “Fold Change in IC50 from Sofosbuvir” value ([6]; genotype 1b, no NS5B mutation) was 0.9 and the “Fold Change in IC95 from Sofosbuvir” value ([6]; genotype 1b, no NS5B mutation) was 22.2. The “IC95 Value” ([6]; genotype 1b, no NS5B mutation) was 28.9 nM, the IC50 [7, 14] was 2.9 nM and the “Fold Change in IC50 from Sofosbuvir” value ([7]; genotype 2a, no NS5B mutation) was 7.9. For the same compound, the “Fold Change in IC95 from Sofosbuvir” value ([7]; genotype 2a, no NS5B mutation) was 12.0, the “IC95 Value” ([7]; genotype 2a, no NS5B mutation) was 16.2 nM and the IC50 [8, 14] was 3.1 nM. The “Fold Change in IC50 from Sofosbuvir” value ([8]; genotype 2b, no NS5B mutation) was 14.4, the “Fold Change in IC95 from Sofosbuvir” value ([8]; genotype 2b, no NS5B mutation) was 20.1 and the “IC95 Value” ([8]; genotype 2b, no NS5B mutation) was 14.7 nM. For the same compound, the IC50 [9, 14] was 4.4 nM, the “Fold Change in IC50 from Sofosbuvir” value [9, 16] was 28.4 and the “Fold Change in IC95 from Sofosbuvir” value [9, 16] was 27.2. The “IC95 Value” [9, 16] was 25.4 nM, the IC50 [10, 14] was 4.5 nM and the “Fold Change in IC50 from Sofosbuvir” value [10, 17] was 27.5. For the same compound, the “Fold Change in IC95 from Sofosbuvir” value [10, 17] was 34.6, the “IC95 Value” [10, 17] was 23.3 nM and the IC50 [11, 14] was 3.6 nM. The “Fold Change in IC50 from Sofosbuvir” value ([11]; genotype 4a, no NS5B mutation) was 20.7, the “Fold Change in IC95 from Sofosbuvir” value ([11]; genotype 4a, no NS5B mutation) was 17.9 and the “IC95 Value” ([11]; genotype 4a, no NS5B mutation) was 38.1 nM. For the same compound, the IC50 [12, 18] was 5.6 nM, the “Fold Change in IC50 from Sofosbuvir” value ([12]; genotype 4d, no NS5B mutation) was 16.7 and the “Fold Change in IC95 from Sofosbuvir” value ([12]; genotype 4d, no NS5B mutation) was 26.6. For the same compound, the “IC95 Value” ([12]; genotype 4d, no NS5B mutation) was 38.4 nM, the “cross-resistance to S282T variant” value (HCV S282T replicon) was “neither 25, 27, nor 5-2 compounds showed any evidence of cross-resistance” and the IC50 (HCV S282T replicon; [18]) was < 1 nM. For the same compound, the “Fold Change in IC50 from Sofosbuvir” value (HCV S282T replicon; NS5B Mutation S282T) was >278, the “Fold Change in IC95 from Sofosbuvir” value (HCV S282T replicon; NS5B Mutation S282T) was >84.7 and the IC95 Value (HCV S282T replicon; NS5B Mutation S282T, transient assay, 96-hr) was 11.8 nM. For the same compound, the IC95 Value (HCV wild type replicon) was 4.1 nM, the IC50 (HCV wild type replicon; [18]) was < 1 nM and the “Fold Change in IC50 from Sofosbuvir” value (HCV wild type replicon; NS5B Mutation None) was >36.4. The “Fold Change in IC95 from Sofosbuvir” value (HCV wild type replicon; NS5B Mutation None) was 53.2, the “predominant metabolite observed in cultured human hepatocytes” value (human hepatocytes) was “β-D-2′-deoxy-2′-α-fluoro-2′-β-methyl-guanine triphosphate” and the EC50 [13] was 5 nM.
